Test results taken from patent US20060121449A1, “Method for selection of compounds which inhibit clonal cell growth and use thereof” (priority 2002, published 2006).
“Also recorded” adds a separate entry of the source.

How the values were obtained:
[1] = tested on: spleen antibody producing cells against sheep red cells; experiment: Jerne's test: haemolytic plaques of spleen cells after immunisation with sheep red cells (Exp 10); type: in vivo, mouse; details: Exp 10 animal 2, low: 2 μl 20 mM s.c. (est. max extracellular 4.6 μM)
[2] = tested on: BHK21/c13 (normal baby hamster kidney cells); experiment: Clonal growth of normal BHK21/c13 cells in soft agar with growth factors (Exp 3, 6); type: cell-based; design: Clonal inhibition: unit not given here; details: for Clonal inhibition: BHK21/c13 + insulin
Procedure: This experiment used BHK21/c13 cells grown in the Falcon plates with 24 wells. Each well received 120000 cells seeded in a top layer of 0.3 ml with 0.8% ultra low gelling temperature agarose (type IX, Sigma). This layer was placed upon a 0.3 ml bottom layer with 3% of the same agarose. The medium contained Eagles MEM and RPMI 1640 with 10% foetal bovine serum. The medium was supplemented with either: 15% conditioned medium (from BHK21/c13 cultures), the serum extender Mito+ or 0.1 i.u. Insulin Actrapid (Novo) or with two or all three of these in combination.
Agar cultures were prepared in wells of 24 well Falcon tissue culture plate. […] The medium contained about equal amounts of Eagle and RPMI 1640 with 10% FBS. Insulin (Actrapid, Novo) was added in a concentration of 0.1 i.u./ml to BHK21/c13 cell cultures only.

MT4 cells = experiment: Clonal growth of MT4 cells in fluid medium, cross dilution of cells and inhibitor (Exp 14); type: cell-based
Procedure: Ten fold cell dilutions indicatet in the last row (Table 1) were undertaken in Falcon tissue culture tray using 6×6 wells.
The 4-OH-OPB dilutions were prepared minutes before being used from 20 mM stock solution in DMSO.
The 10 μM and 3 μM dilutions were made first and each of them were diluted further in 1/10 steps.

BHK21/c13 cells = experiment: Surface growth (degree of confluence) of BHK21/c13 cells on plastic (Exp 5); type: cell-based, hamster; details: for Concentration giving about full inhibition of growth on surface: 2-4 days
Excerpt: The degree of confluence of polyoma virus transformed BHK21/c13 cells, the S100T1 cell strain, growing on plastic surface was observed 2-4 days after seeding 3000 or […] cells in appropriate wells of a 96 well tissue culture plate (Nunc).

HSV1 = HSV1 replication and cytopathogenicity in RK13 cells (Exp 11a, 11b); type: cell-based, Herpes virus type 1; details: for Cytopathogenicity read after 24 hours: 4d = 100% degenerated; for Cell layer read after 24 hours: 4 g = unaffected and covering bottom of the well; for Coverage of the bottom read after 2 days / Cytopathogenicity read after 2 days: 11b, HSV 2 μl/well; for Coverage of the bottom read after 2 days: 1 g = 100% coverage of the bottom; for Cytopathogenicity read after 2 days: 1d is 100% degeneration
[3] = tested on: Ehrlich ascites cells injected subcutaneously; experiment: Subcutaneously transplanted Ehrlich cells in mice, export of metastatic cells (Exp 9); details: for Export (migration) of subcutaneously injected Ehrlich cells to peritoneum in treated animals / Solid tumours at subcutaneous injection sites: Exp 9; for Export (migration) of subcutaneously injected Ehrlich cells to peritoneum in treated animals: i.p. injections twice a week, untreated control developed ascites only
Procedure: This assay involves different numbers of Ehrlich carcinoma cells injected in six subcutaneous locations of mice that were treated by intraperitoneal injections of the compound tested, e.g. 4-OH-OPB (experiment number 9). […] When operating with different cell numbers in the different injection sites, the number of growing tumours indicated which cell number that is necessary for the development of tumours in treated or untreated animals.
Ehrlich ascites was stored in liquid nitrogen on serum with 10% DMSO. The ampoules were thawed in water of 37° C., diluted in serum, and pelleted by low speed centrifugation after the addition of 2 ml FBS, to remove DMSO.
The cells were diluted in volumes of 0.6 ml RPM (pH about 6.9) for each animal with no serum added. The 4-OH-OPB was injected intraperitonally twice a week, see Table 2.

[4] = 11a, inoculate 1 μl/well, 30 μM
[5] = 11a, inoculate 4 μl/well, 30 μM
[6] = 11a, inoculate 16 μl/well, 30 μM
[7] = Exp 9 mouse 1: 10.5 μl 0.2 M i.p. (est. extracell. conc. 281)
[8] = Exp 9 mouse 1: 10.5 μl 0.2 M i.p. twice a week (est. extracell. conc. 281)
[9] = Exp 9 mouse 3: 9.6 μl 20 mM i.p. (27.9)
[10] = Exp 9 mouse 3: 9.6 μl 20 mM i.p. twice a week (27.9)
[11] = Exp 9 mouse 4: 1.37 μl 20 mM i.p. (2.8)

In the case of CCCCC1(O)C(=O)N(c2ccccc2)N(c2ccc(O)cc2)C1=O (centres unmarked) [4-OH-OPB, 4-butyl-4-hydroxy-2(p-hydroxyphenyl)-1-phenyl-3,5-pyrazolidinedione], the Spleen weight [1] is reported as 148 mg, the Clonal inhibition ([2]; 0.3 μM added after 24 hours, read after 48 hours) is reported as 0 and the Clonal inhibition ([2]; 0.3 μM added immediately, read after 24 hours) is reported as 0. It also gave a Clonal inhibition ([2]; 0.3 μM added immediately, read after 48 hours) of 0, a Clonal inhibition ([2]; 1 μM added after 24 hours, read after 48 hours) of 0 and a Clonal inhibition ([2]; 1 μM added immediately, read after 24 hours) of 0. The Clonal inhibition ([2]; 1 μM added immediately, read after 48 hours) was 0, the Clonal inhibition ([2]; 3 μM added after 24 hours, read after 48 hours) was 0 and the Clonal inhibition ([2]; 3 μM added immediately, read after 24 hours) was 0. For the same compound, the Clonal inhibition ([2]; 3 μM added immediately, read after 48 hours) was 0, the Clonal inhibition ([2]; 10 μM added after 24 hours, read after 48 hours) was 0 and the Clonal inhibition ([2]; 10 μM added immediately, read after 24 hours) was “+”. For the same compound, the Clonal inhibition ([2]; 10 μM added immediately, read after 48 hours) was “+”, the Clonal inhibition ([2]; 30 μM added after 24 hours, read after 48 hours) was 0 and the Clonal inhibition ([2]; 30 μM added immediately, read after 24 hours) was “+++”. For the same compound, the Clonal inhibition ([2]; 30 μM added immediately, read after 48 hours) was “++”, the “Effect when treated first after 24 hours” value ([2]; Exp 6, BHK21/c13) was “no effect was detected” and the “Concentration with small, but significant effect on clonal inhibition” value ([2]; Exp 6, BHK21/c13, treated immediately on seeding, photograph after 24 hours) was at least 10 µM. For the same compound, the “Concentration needed for arresting colony growth: less in cultures with 5000 cells than with 500000 cells” value (MT4 cells) was “about 2 logs”, the “Concentration needed for total inhibition of surface growth, BHK21/c13 compared to S100T1” value (BHK21/c13 cells) was “about 3 times” and the “Growth on surface with 100 and 300 nM after 4 days” value (BHK21/c13 cells; 3000 BHK21/c13 cells/well) was “growth inhibition compared to the control”. The “Concentration giving about full inhibition of growth on surface” value (BHK21/c13 cells; 3000 BHK21/c13 cells/well) was 3 µM, the “Concentration giving about full inhibition of growth on surface” value (BHK21/c13 cells; 10000 BHK21/c13 cells/well with 0.1 i.u./ml insulin) was 10 µM and the “HSV titration of treated wells, read after 4 days” value (HSV1; 11a, 1 μl HSV, 0.3 μM, dilution 1/1024) was “((+)?”. The “Cytopathogenicity read after 24 hours” value (HSV1; 11a, inoculate 1 μl/well, 0.1 μM) was 1.7 days, the “Cytopathogenicity read after 24 hours” value (HSV1; 11a, inoculate 1 μl/well, 0.3 μM) was 1.7 days and the “Cytopathogenicity read after 24 hours” value (HSV1; 11a, inoculate 1 μl/well, 1 μM) was 1.7 days. The “Cytopathogenicity read after 24 hours” value (HSV1; 11a, inoculate 1 μl/well, 3 μM) was 1.7 days, the “Cytopathogenicity read after 24 hours” value (HSV1; 11a, inoculate 1 μl/well, 10 μM) was 4 days and the “Cell layer read after 24 hours” value (HSV1; [4]) was 3 to 4 g. For the same compound, the “Cytopathogenicity read after 24 hours” value (HSV1; [4]) was 0 days, the “Cytopathogenicity read after 24 hours” value (HSV1; 11a, inoculate 4 μl/well, 0.1 μM) was 2.6 days and the “Cytopathogenicity read after 24 hours” value (HSV1; 11a, inoculate 4 μl/well, 0.3 μM) was 2.6 days. The “Cytopathogenicity read after 24 hours” value (HSV1; 11a, inoculate 4 μl/well, 1 μM) was 2.6 days, the “Cytopathogenicity read after 24 hours” value (HSV1; 11a, inoculate 4 μl/well, 3 μM) was 2.6 days and the “Cytopathogenicity read after 24 hours” value (HSV1; 11a, inoculate 4 μl/well, 10 μM) was 4 days. For the same compound, the “Cell layer read after 24 hours” value (HSV1; [5]) was 3 to 4 g, the “Cytopathogenicity read after 24 hours” value (HSV1; [5]) was 0 days and the “Cytopathogenicity read after 24 hours” value (HSV1; 11a, inoculate 16 μl/well, 0.1 μM) was 3.4 days. The “Cytopathogenicity read after 24 hours” value (HSV1; 11a, inoculate 16 μl/well, 0.3 μM) was 3 to 4 days, the “Cytopathogenicity read after 24 hours” value (HSV1; 11a, inoculate 16 μl/well, 1 μM) was 3.4 days and the “Cytopathogenicity read after 24 hours” value (HSV1; 11a, inoculate 16 μl/well, 3 μM) was 4 days. The “Cytopathogenicity read after 24 hours” value (HSV1; 11a, inoculate 16 μl/well, 10 μM) was 4 days, the “Cell layer read after 24 hours” value (HSV1; [6]) was 3 to 4 g and the “Cytopathogenicity read after 24 hours” value (HSV1; [6]) was 0.5 days. The “Coverage of the bottom read after 2 days” value (HSV1; 0.3 μM) was 1 g, the “Coverage of the bottom read after 2 days” value (HSV1; 1 μM) was 1 g and the “Cytopathogenicity read after 2 days” value (HSV1; 1 μM) was 0.28 days. For the same compound, the “Coverage of the bottom read after 2 days” value (HSV1; 3 μM) was 1 g, the “Cytopathogenicity read after 2 days” value (HSV1; 3 μM) was 0.28 days and the “Cytopathogenicity read after 2 days” value (HSV1; 10 μM) was 1 days. The “Coverage of the bottom read after 2 days” value (HSV1; 30 μM) was 1 g, the “Concentration that inhibited HSV / necessary for the cure of the infection in cell culture” value (HSV1; Exp 11a, inoculate not removed before titration) was 10 µM and the “Concentration that inhibited satisfactorily” value (HSV1; Exp 11b) was 1000 nM. The Total titre reduction (HSV1; Exp 11b) was “about 3.5 log”, the “Dose giving maximal inhibition of HSV1 titre” value (HSV1; Exp 11b, titration read after four days) was at least 1 µM and the “Inhibition in Exp 11b compared with Exp 11a” value (HSV1; medium changed the day after infection) was 10 times. For the same compound, the “Export (migration) of subcutaneously injected Ehrlich cells to peritoneum in treated animals” value [3] was “did not get ascites with tumour cells, only solid tumours; also recorded: no spread of tumour cells from these subcutaneous injection sites were found in peritoneum; also recorded: effective in stopping migration of tumour cells to peritoneum; also recorded: None of the treated ones got ascites”, the “Export (migration) of subcutaneously injected Ehrlich cells to peritoneum in treated animals” value ([3]; listed as 4-OH—OPB) was “Found inhibition on metastatic” and the “Solid tumours at subcutaneous injection sites” value ([3]; the two mice receiving smaller doses) was “only one tumour”. For the same compound, the “Solid tumours at subcutaneous injection sites” value ([3]; very high dose mouse, sites with 6250 and 31250 cells) was “two tumours of the abdominal wall”, the “Toxic effects of the very high dose” value ([3]; Exp 9 mouse 1: 10.5 μl 0.2 M i.p.) was “caused adherences in peritoneum; also recorded: liver, spleen and possibly kidneys became affected by its toxicity; also recorded: died of haemorrhagic effusion in thorax” and the “Day 21, pathology” value [3, 7] was “Ascites”. The “Pathology after 24 days” value [3, 7] was “Ascites or thoracic fluid did not contain Ehrlich cells”, the “Pathology after 24 days” value ([3]; Exp 9 mouse 1: 10.5 μl 0.2 M i.p. (est. extracell. conc. 281), listed as 4-OH—OPB) was “number developed solid tumours; also recorded: Toxic ascites and thoracic” and the “Clinical status, day 14” value [3, 8] was “No Ehrlich”. The “Day 3-7, clinical status” value [3, 8] was “no tumour”, the “Weight, day 18” value ([3]; Exp 9 mouse 1: 10.5 μl 0.2 M i.p. twice a week, initial weight 26.2) was 37.4 g and the “Animal weight after 24 days” value ([3]; Exp 9 mouse 1: 10.5 μl 0.2 M i.p., initial weight 26.2) was 40.2 g. The “Day 21, pathology” value [3, 9] was “Lens sized”, the “Pathology after 24 days” value [3, 9] was “Ascites or organ tumours were not found” and the “Pathology after 24 days” value ([3]; Exp 9 mouse 3: 9.6 μl 20 mM i.p. (27.9), listed as 4-OH—OPB) was “Pea sized tumour in left”. The “Clinical status, day 14” value [3, 10] was “No tumour”, the “Clinical status, day 18” value [3, 10] was “No tumour” and the “Animal weight after 24 days” value ([3]; Exp 9 mouse 3: 9.6 μl 20 mM i.p., initial weight 24.1) was 25 g. For the same compound, the “Day 21, pathology” value [3, 11] was “Small tumour”, the “Pathology after 24 days” value [3, 11] was “slightly observable tumour in the abdominal wall” and the “Pathology after 24 days” value ([3]; Exp 9 mouse 4: 1.37 μl 20 mM i.p. (2.8), listed as 4-OH—OPB) was “days ago, now lens sized”. For the same compound, the “Animal weight after 24 days” value ([3]; Exp 9 mouse 4: 1.37 μl 20 mM i.p., initial weight 34.2) was 33.5 g. Tumour as discovered 3 and the “Estimated concentration in extracellular fluid at which serious toxicity occurs” value ([3]; extracellular fluid calculated as 2/7 of the animal weight) was 280 µM.
